pEC50: −log10 of the molar value. Values after ≈ are worked out from the molar mass of the structure shown.
Columns and labels:
[1] = Comparative test of solubility; format: physicochemical; details: shaken 75 min; for solubility thermodynamic at 75 min: 200 mM potassium phosphate buffer, pH 7.4, aqueous buffer, read-out: Solibility to 200 mM potassium phosphate buffer; for solubility thermodynamic at 75 min / solubility at 75 min: thermodynamic from solid; for solubility at 75 min: JP-1 artificial gastric fluid, pH 1.2, simulated gastric fluid, JP-1 pH1.2 (artificial gastric fluid), 1 mg in 1 ml
Experimental: Experiment 3 (Comparative Test of Solubility)
1 mg of compounds were placed in 1 ml of medium (JP-1, […] potassium phosphate buffer) and was shaken on a shaking-incubator for 75 min. (1000 rpm). After centrifugation, concentration of supernatant was analyzed by HPLC.
JP1: pH1.2 (artificial gastric fluid: 35 mM NaCl, 84 mM HCl in water)
2.0 g of NaCl, 7.0 ml of HCl and water were mixed in a measuring flask (1000 ml).
200 mM potassium phosphate buffer: pH7.4
200 mM K2HPO4 and 200 mM KH2PO4 were mixed and adjusted to pH7.4 by using pH meter.

[2] = Comparative test of solubility; format: physicochemical; details: water, thermodynamic from solid
[3] = target: T1, recombinant human liver GK (Homo sapiens, UniProt P35557); test: Glucokinase-activating effect (Thio-NADH coupled assay with G6PDH); format: biochemical; details: 2.5 mM glucose, 30° C.
T1 construct: made in house; host or cells: E. coli
T1 sequence (P35557 1-466 isoform P35557-2): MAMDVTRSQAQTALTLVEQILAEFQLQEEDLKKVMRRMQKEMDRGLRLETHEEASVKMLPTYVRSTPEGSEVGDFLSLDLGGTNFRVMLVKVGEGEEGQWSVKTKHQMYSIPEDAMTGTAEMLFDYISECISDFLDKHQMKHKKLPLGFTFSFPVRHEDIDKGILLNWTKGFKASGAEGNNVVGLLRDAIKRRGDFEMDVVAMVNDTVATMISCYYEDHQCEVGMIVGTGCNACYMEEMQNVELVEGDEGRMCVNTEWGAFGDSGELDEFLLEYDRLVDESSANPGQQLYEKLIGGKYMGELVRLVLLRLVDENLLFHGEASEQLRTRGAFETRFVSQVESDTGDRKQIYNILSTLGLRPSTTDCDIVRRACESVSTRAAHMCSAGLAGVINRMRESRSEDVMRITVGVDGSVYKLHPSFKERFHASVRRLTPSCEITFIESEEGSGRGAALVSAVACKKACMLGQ
Excerpt: Pharmacological Experiment 1 (Glucokinase-Activating Effect)
The excellent glucokinase-activating effect of the compounds of formula (I) may be determined by a method described in references (for example, Diabetes, Vol. 45, pp. 1671-1677, 1996), or in accordance with it.
The glucokinase activity may be determined not by directly measuring glucose-6-phosphate but by measuring the level of Thio-NADH, which is produced when a reporter enzyme, glucose-6-phosphate dehydrogenase produces phosphogluconolactone from glucose-6-phosphate, and based on the level, the degree of glucokinase activation by the compound tested may be determined.
In this assay, used was a recombinant human liver GK, which was expressed by E. coli as a FLAG fusion protein therein and was purified by ANTIFLAG M2 AFFINITY GEL (Sigma).
Using a flat-bottomed 96-well plate, the assay was carried out at 30° C. 69 μl of an assay buffer (25 mM Hepes Buffer/pH=7.2, 2 mM MgCl2, 1 mM ATP, 0.5 mM TNAD, 1 mM dithiothreitol) was put into the plate, and 1 μl of a DMSO solution of the compound or DMSO alone as a control was added thereto. Next, 20 μl of an enzyme mixture (FLAG-GK, 20 U/ml G6PDH) cooled in ice was added to it, and 10 μl of a substrate, 25 mM glucose was added to it, and the reaction was initiated (final glucose concentration=2.5 mM).
After the start of the reaction, the increase in the absorbance at 405 nm was measured for 12 minutes at intervals of 30 seconds, and the increase for the first 5 minutes was used for assessing the compound tested. FLAG-GK was added so that the absorbance increase after 5 minutes in the presence of 1% DMSO could be from 0.04 to 0.06.
The OD level of the DMSO control was set as 100%; and the OD level of the test compound at different concentrations was determined. From the OD level at each concentration, Emax (%) and EC50 (μM) were computed and used as the index of the GK-activating potency of the compound.

Male beagle dogs = test: Pharmacological test in dog: plasma glucose after oral administration; format: in vivo; details: AUC for 4 hr after administration, fasted male beagle dogs
Experimental: Pharmacological Experiment 2 (Pharmacological Test in Dog)
Male beagle dogs (BW 9.6-13.8 kg) were fasted overnight. Pre-dose blood sampling was performed from cephalic vein. The test drugs, which were suspended into 0.5% methylcellulose, were orally administrated (example 1 at 0.25, 0.5 and 1 mg/kg, and example 4, and compound B at 1 mg/kg). Control group was given 0.5% methylcellulose alone. Blood was taken every 0.5 or 1 hour after the drug dosing. Plasma sample were obtained by centrifugation, and the plasma glucose levels were measured by “Determiner GL-E” (Kyowa Medex Co., Ltd. Japan).

SMILES	solubility thermodynamic at 75 min ([1]; pH7.4, 1 mg in 1 ml) [µg/mL]	solubility at 75 min [1] [µg/mL]	solubility at 75 min [2] [µg/mL]	pEC50 [3]	Emax ([3]; OD level of DMSO control set as 100%) [%]	Solibility to 200 mM potassium phosphate buffer ([1]; pH7.4, 1 mg in 1 ml) [µg/mL]	% Reduction of plasma glucose AUC (Male beagle dogs; 1 mg/kg oral) [%]	% Reduction of plasma glucose AUC (Male beagle dogs; 0.25 mg/kg oral) [%]	% Reduction of plasma glucose AUC (Male beagle dogs; 0.5 mg/kg oral) [%]
Cc1nsc(NC(=O)c2nc(Sc3nncn3C)ccc2Sc2ccc(OCCN3CCC[C@H]3C)cc2)n1 [Example 4]	–	> 1000	47.4 (≈ 83.3 µM)	6.82	–	47.3	26.8	–	–
CCN(CC)CCOc1ccc(Sc2ccc(Sc3nncn3C)nc2C(=O)Nc2nc(C)ns2)cc1 [Example 24, 3-({4-[2-(diethylamino)ethoxy]phenyl}thio)-N-(3-methyl-1,2,4-thiadiazol-5-yl)-6-[(4-methyl-4H-1,2,4-triazol-3-yl)thio]pyridine-2-carboxamide]	298 (≈ 536 µM)	> 1000	230 (≈ 414 µM)	7.40	–	–	–	–	–
Cc1nsc(NC(=O)c2nc(Sc3nncn3C)ccc2Sc2ccc(OCCN3CCCCC3)cc2)n1 [Example 26, N-(3-methyl-1,2,4-thiadiazol-5-yl)-6-[(4-methyl-4H-1,2,4-triazol-3-yl)thio]-3-{[4-(2-piperidin-1-ylethoxy)phenyl]thio}pyridine-2-carboxamide]	239 (≈ 421 µM)	> 1000	176 (≈ 309 µM)	7.15	–	–	–	–	–
CCN(C)CCOc1ccc(Sc2ccc(Sc3nncn3C)nc2C(=O)Nc2nc(C)ns2)cc1 [Example 23, 3-[(4-{2-[ethyl(methyl)amino]ethoxy}phenyl)thio]-N-(3-methyl-1,2,4-thiadiazol-5-yl)-6-[(4-methyl-4H-1,2,4-triazol-3-yl)thio]pyridine-2-carboxamide]	122 (≈ 226 µM)	> 1000	208 (≈ 383 µM)	7.22	–	–	–	–	–
Cc1nsc(NC(=O)c2nc(Sc3nnc[nH]3)ccc2Sc2ccc(OCCN(C)C)cc2)n1 [Compound (B), reference compound]	–	–	–	–	–	–	7.4	–	–
Cc1nsc(NC(=O)c2nc(Sc3nncn3C)ccc2Sc2ccc(CCO)cc2)n1 [(A), reference compound]	3.4 (≈ 7 µM)	6.2 (≈ 12.8 µM)	2.4 (≈ 4.94 µM)	–	–	–	–	–	–

Second part, led by results:

solubility thermodynamic at 75 min ([1]; pH7.4, 1 mg in 1 ml) [µg/mL]	solubility at 75 min [1] [µg/mL]	solubility at 75 min [2] [µg/mL]	pEC50 [3]	Emax ([3]; OD level of DMSO control set as 100%) [%]	Solibility to 200 mM potassium phosphate buffer ([1]; pH7.4, 1 mg in 1 ml) [µg/mL]	SMILES	% Reduction of plasma glucose AUC (Male beagle dogs; 1 mg/kg oral) [%]	% Reduction of plasma glucose AUC (Male beagle dogs; 0.25 mg/kg oral) [%]	% Reduction of plasma glucose AUC (Male beagle dogs; 0.5 mg/kg oral) [%]
86.8 (≈ 153 µM)	> 1000	127 (≈ 223 µM)	7.40	964	–	Cc1nsc(NC(=O)c2nc(Sc3nncn3C)ccc2Sc2ccc(O[C@@H]3CCN(C(C)C)C3)cc2)n1 [Example 20, 3-[(4-{[(3R)-1-isopropylpyrrolidin-3-yl]oxy}phenyl)thio]-N-(3-methyl-1,2,4-thiadiazol-5-yl)-6-[(4-methyl-4H-1,2,4-triazol-3-yl)thio]pyridine-2-carboxamide]	–	–	–
308 (≈ 555 µM)	> 1000	583 (≈ 1050 µM)	7.22	–	–	Cc1nsc(NC(=O)c2nc(Sc3nncn3C)ccc2Sc2ccc(OC[C@@H]3CCCN3C)cc2)n1 [Example 7, 3-[(4-{[(2S)-1-methylpyrrolidin-2-yl]methoxy}phenyl)thio]-N-(3-methyl-1,2,4-thiadiazol-5-yl)-6-[(4-methyl-4H-1,2,4-triazol-3-yl)thio]pyridine-2-carboxamide]	–	–	–
13.8 (≈ 25.5 µM)	> 1000	16.4 (≈ 30.3 µM)	7.30	–	–	CCN1CC(Oc2ccc(Sc3ccc(Sc4nncn4C)nc3C(=O)Nc3nc(C)ns3)cc2)C1 [Example 25, 3-({4-[(1-ethylazetidin-3-yl)oxy]phenyl}thio)-N-(3-methyl-1,2,4-thiadiazol-5-yl)-6-[(4-methyl-4H-1,2,4-triazol-3-yl)thio]pyridine-2-carboxamide]	42.1	–	–
17.5 (≈ 33.1 µM)	> 1000	15.2 (≈ 28.8 µM)	7.05	–	–	Cc1nsc(NC(=O)c2nc(Sc3nncn3C)ccc2Sc2ccc(OCCN(C)C)cc2)n1 [Example 1, 3-({4-[2-(dimethylamino)ethoxy]phenyl}thio)-N-(3-methyl-1,2,4-thiadiazol-5-yl)-6-[(4-methyl-4H-1,2,4-triazol-3-yl)thio]pyridine-2-carboxamide]	15.7	7.9	10.6

— patent US8338460B2, “2-pyridinecarboxamide derivative having GK-activating effect” (MSD K. K., priority 2006, dated 2012)
